Assay results from patent US9238796B2, “Cell growth-promoting peptide and use thereof” (TOAGOSEI CO., LTD., priority 2010, dated 2016).
No end group written: not given here.

Legend:
[1] = system: Rat bone marrow-derived stem cells (mesenchymal stem cells); assay: Evaluation of cell growth-promoting activity, WST-8 colorimetric method (Example 5); assay type: cell-based; conditions: WST-8 absorbance at 450 nm, peptide approximately 2 μM, bFGF 10 ng/mL; for OD450 at the start of cultivation: day 0; for OD450 after 4 days: day 4
Protocol: (§1) Experimental sections were set up that used the cell growth-promoting peptides obtained in Example 4 (samples 22 to 42) as a cell growth promoter and that used a commercially available bFGF as a cell growth promoter as a comparative example. For the control, a peptide-free section (the bFGF was also not added) was set up.
(§2) The details of the evaluation testing are provided below. Each synthesized sample peptide was dissolved in PBS (phosphate-buffered physiological saline) to prepare a stock solution with a peptide concentration of 1 mM.
(§3) Rat bone marrow-derived stem cells (mesenchymal stem cells) were used as the test cells. Specifically, the test stem cells were cultured by passage on Dulbecco's MEM medium (DMEM medium: Gibco product) containing 10% fetal bovine serum (FBS: Gibco product), 2 mM of L-glutamine, 50 unit/mL of penicillin, and 50 μg/mL of streptomycin. From the second passage to the fourth passage (passages 2 to 4) were used in this evaluation testing.
(§4) Thus, the test stem cells were preliminarily recovered by treatment with a 0.05% trypsin-0.53 mM EDTA solution; a test stem cell solution, prepared with the DMEM medium containing 10 ng/mL of bFGF to provide 1×10^4 cells/mL, was seeded to each well of a 96-well plate to provide a cell count of 1×10^3 per well; and pre-cultivation was carried out overnight. The amount of medium was brought to 100 μL per well for this.
(§5) The medium in each well was then exchanged for fresh medium to which a stock solution of a peptide selected from sample 22 to 42 had been added, so as to give a concentration of the peptide in each well of approximately 2 μM. For comparison, in some wells the medium in the well was exchanged for fresh medium to which a commercially available bFGF (product of PeproTech) had been added to give a concentration of 10 ng/mL (the bFGF experimental section in Table 6).
(§6) After the addition of the sample peptide or bFGF as indicated above, the 96-well plate was placed in a CO2 incubator and cultivation at quiescence was carried out at 37° C. under 5% CO2. Medium exchange was performed every other day. The exchange medium was the same as that used at the start of cultivation (i.e., the same sample peptide or bFGF was also added to the exchange medium as in the sample peptide addition section or bFGF addition section).
During this cultivation test, a “water-soluble tetrazolium salt (WST-8)” was added as a chromogenic reagent to some wells at the start of cultivation (day 0) and at four days after the start of cultivation (day 4). After incubation for 2 hours after the addition, the cell culture fluid to which the chromogenic reagent had been added was recovered. The extent of cell growth was evaluated by a colorimetric method in which, based on reduction of the tetrazolium salt, the absorbance (OD450) at a wavelength of 450 nm was measured.

[2] = system: Rat bone marrow-derived stem cells (mesenchymal stem cells); assay: Evaluation of cell growth-promoting activity, WST-8 colorimetric method (Example 2); assay type: cell-based; conditions: WST-8 absorbance at 450 nm, peptide approximately 2 μM, bFGF 10 ng/mL
Protocol: as §1, with “1” for “4”, “1” for “22”, “21)” for “42)”
as §2, §3, §4
as §5, with “1” for “22”, “21” for “42”, “3).” for “6).”
as §6
During this cultivation test, a “water-soluble tetrazolium salt (WST-8)” was added as a chromogenic reagent to some wells at the start of cultivation (day 0), at two days after the start of cultivation (day 2), and at four days after the start of cultivation (day 4). After incubation for 2 hours after the addition, the cell culture fluid to which the chromogenic reagent had been added was recovered. The extent of cell growth was evaluated by a colorimetric method in which, based on reduction of the tetrazolium salt, the absorbance (OD450) at a wavelength of 450 nm was measured.

Row | Substance | OD450 at the start of cultivation [1] | OD450 after 4 days [1] | OD450 at the start of cultivation ([2]; day 0) | OD450 after 2 days ([2]; day 2) | OD450 after 4 days ([2]; day 4)
1 | MLPGLALLLLAAWTARAGKKRTLRKNDRKKR (MLPGLALLLLAAWTARAGKKRTLRKNDRKKR-NH2) [sample 22] | 0.051 | 0.241 | – | – | –
2 | ALLLLAAWTARAGKKRTLRKNDRKKR (ALLLLAAWTARAGKKRTLRKNDRKKR-NH2) [compound 26] | 0.051 | 0.509 | – | – | –
3 | LLAAWTARAGKKRTLRKNDRKKR (LLAAWTARAGKKRTLRKNDRKKR-NH2) [compound 29] | 0.051 | 0.434 | – | – | –
4 | basic fibroblast growth factor [bFGF, reference compound] | 0.051 | 0.499 | 0.058 | 0.196 | 0.484
5 | MLPGLALLLLAAWTGKKRTLRKNDRKKR (MLPGLALLLLAAWTGKKRTLRKNDRKKR-NH2) [compound 35] | 0.051 | 0.299 | – | – | –
6 | MLPGLALLLGKKRTLRKNDRKKR (MLPGLALLLGKKRTLRKNDRKKR-NH2) [compound 40] | 0.051 | 0.487 | – | – | –
